Consider 67 compounds from US8318762B2, “Pyrazolospiroketone acetyl-CoA carboxylase inhibitors” (Pfizer Inc., priority 2008, dated 2012).

The structures appear in SMILES notation. Bounds are passed on as bounds.

This test concerns the target T1, recombinant human ACC2 (Homo sapiens, UniProt O00763).
T1 construct: a full length Cytomax clone of ACC2 was purchased from Cambridge Bioscience Limited; made in house; host or cells: CHO cells (tetracycline induction, pcDNA5 FRT TO-TOPO); purified on a Softlink Soft Release Avidin column
The test is described as follows: Measurement of human ACC2 inhibition (recombinant hACC2 Transcreener ADP detection FP assay). It counts as biochemical. Particulars: recombinant hACC2 transcreener assay; read-out: rhACC2 IC50. As to the method:
[3] Measurement of human ACC2 inhibition. Human ACC2 inhibition was measured using purified recombinant human ACC2 (hrACC2). […] The ACC2 was expressed in CHO cells by tetracycline induction and harvested in 5 liters of DMEM/F12 with glutamine, biotin, hygromycin and blasticidin with 1 μg/mL tetracycline (Invitrogen, Carlsbad, Calif.). The conditioned medium containing ACC2 was then applied to a Softlink Soft Release Avidin column (Promega, Madison, Wis.) and eluted with 5 mM biotin. […] The purified ACC2 was dialyzed in 50 mM Tris, 200 mM NaCl, 4 mM DTT, 2 mM EDTA, and 5% glycerol. […] The final conditions for the assay were 50 mM HEPES, pH7.5, 5 mM MgCl2, 5 mM tripotassium citrate, 2 mM DTT, 0.5 mg/mL BSA, 30 μM acetyl-CoA, 50 μM ATP, and 8 mM KHCO3. Typically, a 10 μl reaction was run for 1 hour at room temperature, and 10 μl of Transcreener stop and detect buffer was added and incubated for an additional 1 hour.

T1 sequence (O00763 whole entry): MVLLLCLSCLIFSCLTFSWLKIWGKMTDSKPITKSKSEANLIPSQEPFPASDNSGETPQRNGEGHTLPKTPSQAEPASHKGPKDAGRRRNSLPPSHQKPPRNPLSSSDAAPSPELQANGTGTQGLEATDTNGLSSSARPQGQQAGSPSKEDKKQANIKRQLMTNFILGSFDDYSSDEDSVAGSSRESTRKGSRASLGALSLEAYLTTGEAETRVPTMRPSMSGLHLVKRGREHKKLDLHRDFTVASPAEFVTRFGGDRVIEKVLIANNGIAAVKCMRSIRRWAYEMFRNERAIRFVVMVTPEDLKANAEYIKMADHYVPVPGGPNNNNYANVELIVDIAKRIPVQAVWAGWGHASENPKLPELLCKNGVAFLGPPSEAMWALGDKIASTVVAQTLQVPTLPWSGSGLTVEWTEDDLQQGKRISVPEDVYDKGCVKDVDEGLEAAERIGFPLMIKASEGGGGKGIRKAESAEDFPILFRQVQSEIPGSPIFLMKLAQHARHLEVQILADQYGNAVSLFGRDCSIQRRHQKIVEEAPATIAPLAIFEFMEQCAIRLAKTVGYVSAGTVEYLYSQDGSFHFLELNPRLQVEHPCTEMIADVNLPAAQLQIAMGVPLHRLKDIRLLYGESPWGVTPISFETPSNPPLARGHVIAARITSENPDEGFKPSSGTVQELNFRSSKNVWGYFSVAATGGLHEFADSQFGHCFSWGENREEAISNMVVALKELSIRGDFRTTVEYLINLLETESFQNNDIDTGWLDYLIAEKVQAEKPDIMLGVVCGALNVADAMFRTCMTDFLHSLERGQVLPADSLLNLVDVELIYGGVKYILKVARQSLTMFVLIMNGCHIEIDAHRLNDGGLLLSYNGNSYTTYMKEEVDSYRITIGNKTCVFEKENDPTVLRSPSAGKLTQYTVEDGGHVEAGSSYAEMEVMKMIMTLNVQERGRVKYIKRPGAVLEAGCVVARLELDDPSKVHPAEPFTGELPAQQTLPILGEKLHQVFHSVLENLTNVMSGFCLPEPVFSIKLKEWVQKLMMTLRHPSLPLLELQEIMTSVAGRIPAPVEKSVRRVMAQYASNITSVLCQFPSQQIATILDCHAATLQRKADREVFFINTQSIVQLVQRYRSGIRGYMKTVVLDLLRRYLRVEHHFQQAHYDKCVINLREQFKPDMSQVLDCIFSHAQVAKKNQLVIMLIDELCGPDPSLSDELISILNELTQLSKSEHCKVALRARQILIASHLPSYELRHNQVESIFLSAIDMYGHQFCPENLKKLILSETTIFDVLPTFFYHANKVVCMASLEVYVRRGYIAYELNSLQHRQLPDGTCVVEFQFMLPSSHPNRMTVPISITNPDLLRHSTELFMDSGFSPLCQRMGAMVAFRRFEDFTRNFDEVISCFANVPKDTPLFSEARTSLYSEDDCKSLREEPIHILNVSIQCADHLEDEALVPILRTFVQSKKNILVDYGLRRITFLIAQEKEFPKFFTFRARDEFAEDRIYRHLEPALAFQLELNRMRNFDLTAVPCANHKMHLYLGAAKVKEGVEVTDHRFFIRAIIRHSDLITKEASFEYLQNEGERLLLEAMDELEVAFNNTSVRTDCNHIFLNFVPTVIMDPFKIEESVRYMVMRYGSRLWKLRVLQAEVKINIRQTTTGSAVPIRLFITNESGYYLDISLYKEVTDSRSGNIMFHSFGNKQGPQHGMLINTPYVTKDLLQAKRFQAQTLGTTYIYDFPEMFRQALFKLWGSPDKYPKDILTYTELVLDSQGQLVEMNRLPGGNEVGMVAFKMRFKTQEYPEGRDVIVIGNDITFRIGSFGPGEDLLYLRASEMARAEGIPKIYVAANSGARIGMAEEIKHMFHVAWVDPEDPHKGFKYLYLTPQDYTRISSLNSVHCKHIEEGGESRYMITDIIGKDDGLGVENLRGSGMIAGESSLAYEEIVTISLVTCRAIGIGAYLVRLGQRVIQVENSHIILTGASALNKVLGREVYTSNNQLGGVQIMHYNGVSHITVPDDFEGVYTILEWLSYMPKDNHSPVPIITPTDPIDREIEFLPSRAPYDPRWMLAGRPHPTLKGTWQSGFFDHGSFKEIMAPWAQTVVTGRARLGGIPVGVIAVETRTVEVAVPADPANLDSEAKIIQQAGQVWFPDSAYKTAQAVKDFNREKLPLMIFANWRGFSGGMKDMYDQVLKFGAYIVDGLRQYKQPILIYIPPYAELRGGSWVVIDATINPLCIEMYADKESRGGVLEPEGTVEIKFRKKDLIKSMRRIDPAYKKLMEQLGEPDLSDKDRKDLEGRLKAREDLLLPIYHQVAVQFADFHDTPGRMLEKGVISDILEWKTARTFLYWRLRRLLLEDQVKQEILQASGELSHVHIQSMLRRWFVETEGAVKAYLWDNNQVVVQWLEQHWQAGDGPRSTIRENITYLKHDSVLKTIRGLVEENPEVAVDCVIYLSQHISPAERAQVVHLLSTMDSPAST

Broadly, the IC50 is the concentration at which inhibition is half-maximal. In the case of `CC(C)(C)n1cc2c(n1)C(=O)CC1(CCN(C(=O)c3ccc4cnoc4c3)CC1)O2` [23.005], the IC50 came to 0.158 µM.
In the case of `CCCn1cc2c(n1)C(=O)CC1(CCN(C(=O)c3ccc4[nH]nc(C)c4c3)CC1)O2` [1.082] it was 0.053 µM; in that of `CC(C)(C)n1cc2c(n1)C(=O)CC1(CCN(C(=O)c3ccc4c(c3)NC(=O)CC4)CC1)O2` [12.004], 0.014 µM.
With `CCOc1cc(C(=O)N2CCC3(CC2)CC(=O)c2nn(C(C)C)cc2O3)cc2c(C)n[nH]c12` [1.120] the figure was 0.006 µM; with `COc1cc(C(=O)N2CCC3(CC2)CC(=O)c2nn(CC(C)C)c(C)c2O3)cc2c(C)n[nH]c12` [1.132], 0.013 µM; with `CC(C)(C)n1cc2c(n1)C(=O)CC1(CCN(C(=O)c3ccc4[nH]c(=O)oc4c3)CC1)O2` [20.001], 0.028 µM.
In the case of `CCn1c(C)nc2cc(C(=O)N3CCC4(CC3)CC(=O)c3nn(C(C)(C)C)cc3O4)ccc21` [8.008] it was 0.052 µM; in that of `COc1cc(C(=O)N2CCC3(CC2)CC(=O)c2nn(C(C)(C)C)cc2O3)cc2nc(C)oc12` [9.003], 0.029 µM; in that of `CC(C)(C)n1cc2c(n1)C(=O)CC1(CCN(C(=O)c3ccc4ncccc4c3)CC1)O2` [15.002], 0.011 µM.
Regarding `CCc1n[nH]c2c(C)cc(C(=O)N3CCC4(CC3)CC(=O)c3nn(CC)cc3O4)cc12` [1.019], the IC50 was determined as 0.018 µM.
For the compound `CCn1nc2c(c1C)OC1(CCN(C(=O)c3ccc4ccccc4c3)CC1)CC2=O` [6.007], the IC50 is 0.04 µM.
`COc1ccc2ccc(C(=O)N3CCC4(CC3)CC(=O)c3nn(C(C)(C)C)cc3O4)cc2c1` [6.003]: the IC50 was determined as 0.002 µM.
Take `CCc1nn(C)c2c(OC)cc(C(=O)N3CCC4(CC3)CC(=O)c3nn(CC)cc3O4)cc12` [1.099]: the 50% inhibitory concentration (IC50) was found to be 0.02 µM.
For `CCC(C)n1cc2c(n1)C(=O)CC1(CCN(C(=O)c3ccc4[nH]ncc4c3)CC1)O2` (stereo not shown) [1.142], the IC50 is 0.02 µM.
For `CCn1nc2c(c1C)OC1(CCN(C(=O)c3cc(OC)c4[nH]nc(C)c4c3)CC1)CC2=O` [1.077], the IC50 was found to be 0.015 µM.
In the case of `CCn1nc2c(c1C)OC1(CCN(C(=O)c3cc(C)c4[nH]c(=O)ccc4c3)CC1)CC2=O` [11.001], the IC50 came out at 0.033 µM.
With `CCn1nc2c(c1C)OC1(CCN(C(=O)c3cc(F)c4nc[nH]c4c3)CC1)CC2=O` [3.020] the figure was 0.139 µM; with `CCCn1cc2c(n1)C(=O)CC1(CCN(C(=O)c3cc(C)c4[nH]nc(C)c4c3)CC1)O2` [1.004], 0.02 µM.
With `CCn1nc2c(c1C)OC1(CCN(C(=O)c3ccc4sncc4c3)CC1)CC2=O` [7.005] the figure was 0.036 µM; with `CCn1nc2c(c1C)OC1(CCN(C(=O)c3ccc4sc(C)nc4c3)CC1)CC2=O` [14.002], 0.176 µM; with `CCn1cc2c(n1)C(=O)CC1(CCN(C(=O)c3cc(C)c4[nH]nc(Cl)c4c3)CC1)O2` [1.108], 0.019 µM.
With `Cc1cc(C(=O)N2CCC3(CC2)CC(=O)c2nn(C4CC4)cc2O3)cc2cn[nH]c12` [1.144] the figure was 0.019 µM; with `CCOc1cc(C(=O)N2CCC3(CC2)CC(=O)c2nn(CC)cc2O3)cc2c(C)n[nH]c12` [1.115], 0.012 µM.
For the compound `COc1cc(C(=O)N2CCC3(CC2)CC(=O)c2nn(C(C)C)c(C)c2O3)cc2c(C)n[nH]c12` [1.078], the IC50 was determined as 0.004 µM.
In the case of `CCn1nc2c(c1C)OC1(CCN(C(=O)c3cc(C)c4nc(C)[nH]c4c3)CC1)CC2=O` [3.002] it was 0.054 µM.
With `CCn1nc2c(c1C)OC1(CCN(C(=O)c3ccc4cccnc4c3)CC1)CC2=O` [16.002] the figure was 0.25 µM.
In the case of `Cc1n[nH]c2c(C)cc(C(=O)N3CCC4(CC3)CC(=O)c3nn(C5CC5)c(C)c3O4)cc12` [1.014] it was 0.009 µM; in that of `CC(C)(C)n1cc2c(n1)C(=O)CC1(CCN(C(=O)c3cc(F)c4cn[nH]c4c3)CC1)O2` [2.014], 0.028 µM; in that of `Cn1ncc2cc(C(=O)N3CCC4(CC3)CC(=O)c3nn(C(C)(C)C)cc3O4)ccc21` [1.145], 0.026 µM.
On to `CCc1n[nH]c2c(OC)cc(C(=O)N3CCC4(CC3)CC(=O)c3nn(CC)cc3O4)cc12` [1.046], for which the IC50 came to 0.029 µM.
In the case of `Cn1cnc2cc(C(=O)N3CCC4(CC3)CC(=O)c3nn(C(C)(C)C)cc3O4)ccc21` [8.007] it was 0.058 µM; in that of `Cc1c2c(nn1C)C(=O)CC1(CCN(C(=O)c3ccc4c(cnn4C)c3)CC1)O2` [1.124], over 3 µM.
With `CCOc1cc(C(=O)N2CCC3(CC2)CC(=O)c2nn(C(C)(C)C)cc2O3)cc2c(C)n[nH]c12` [1.116] the figure was 0.005 µM; with `Cc1c2c(nn1C(C)C)C(=O)CC1(CCN(C(=O)c3cc(Cl)c4[nH]ncc4c3)CC1)O2` [1.133], 0.004 µM; with `CCOc1cc(C(=O)N2CCC3(CC2)CC(=O)c2nn(CC)c(C)c2O3)cc2c(C)n[nH]c12` [1.118], 0.027 µM.
In the case of `CCn1nc2c(c1C)OC1(CCN(C(=O)c3ccc4ccc(OC)cc4c3)CC1)CC2=O` [6.001] it was 0.013 µM.
With `Cc1n[nH]c2c(C)cc(C(=O)N3CCC4(CC3)CC(=O)c3nn(C)cc3O4)cc12` [1.006], the IC50 turned out to be 0.08 µM.
With `CCn1nc2c(c1C)OC1(CCN(C(=O)c3ccc4[nH]nc(C)c4c3)CC1)CC2=O` [1.080] the figure was 0.036 µM; with `Cc1cc(C(=O)N2CCC3(CC2)CC(=O)c2nn(C(C)(C)C)cc2O3)cc2c1ncn2C` [3.023], 0.015 µM; with `CCn1nc2c(c1C)OC1(CCN(C(=O)c3ccc4occc4c3)CC1)CC2=O` [17.002], 0.283 µM.
With `Cc1ccc2cc(C(=O)N3CCC4(CC3)CC(=O)c3nn(C(C)(C)C)cc3O4)ccc2c1` [6.005] the figure was 0.048 µM; with `COc1cc(C(=O)N2CCC3(CC2)CC(=O)c2nn(C(C)(C)C)cc2O3)cc2[nH]ncc12` [2.023], 0.003 µM.
`Cc1cc(C(=O)N2CCC3(CC2)CC(=O)c2nn(C)c(C)c2O3)cc2cn[nH]c12` [1.030]: the IC50 is 0.376 µM.
`Cc1n[nH]c2ccc(C(=O)N3CCC4(CC3)CC(=O)c3nn(C(C)(C)C)c(C)c3O4)cc12` [1.090]: the IC50 stood at 0.023 µM.
With `CCc1nn(C)c2cc(C(=O)N3CCC4(CC3)CC(=O)c3nn(C(C)C)cc3O4)ccc12` [2.007], the IC50 amounted to 0.014 µM.
In the case of `Cc1n[nH]c2c(C)cc(C(=O)N3CCC4(CC3)CC(=O)c3nn(C5CCC5)cc3O4)cc12` [1.010] it was 0.004 µM; in that of `Cc1cc(C(=O)N2CCC3(CC2)CC(=O)c2nn(C(C)C)cc2O3)cc2cnsc12` [7.009], 0.018 µM.
As for `Cc1n[nH]c2c(Cl)cc(C(=O)N3CCC4(CC3)CC(=O)c3nn(C(C)(C)C)cc3O4)cc12` [1.110], the IC50 was 0.003 µM.
As to `Cc1nc2ccc(C(=O)N3CCC4(CC3)CC(=O)c3nn(C(C)(C)C)cc3O4)cc2n1C` [3.027], the IC50 turned out to be 0.042 µM.
In the case of `CCc1n[nH]c2c(C)cc(C(=O)N3CCC4(CC3)CC(=O)c3nn(C(C)(C)C)cc3O4)cc12` [1.020] it was 0.003 µM; in that of `CCn1cc2c(n1)C(=O)CC1(CCN(C(=O)c3cc(C)c4[nH]ncc4c3)CC1)O2` [1.025], 0.054 µM.
In the case of `CCn1cc2c(n1)C(=O)CC1(CCN(C(=O)c3cc(C)c4nc(C)[nH]c4c3)CC1)O2` [3.004] it was 0.111 µM; in that of `Cc1c2c(nn1C)C(=O)CC1(CCN(C(=O)c3ccc4[nH]ncc4c3)CC1)O2` [1.070], 0.713 µM.
Regarding `Cc1nc2c(F)cc(C(=O)N3CCC4(CC3)CC(=O)c3nn(C(C)(C)C)cc3O4)cc2[nH]1` [3.019], the IC50 was determined as 0.017 µM.
In the case of `CC(C)(C)n1cc2c(n1)C(=O)CC1(CCN(C(=O)c3ccc4c(c3)OCC(=O)N4)CC1)O2` [13.003] it was 0.049 µM; in that of `CCn1nc2c(c1C)OC1(CCN(C(=O)c3ccc4ccn(C)c4c3)CC1)CC2=O` [18.002], 0.033 µM.
With `COc1cc(C(=O)N2CCC3(CC2)CC(=O)c2nn(C4CCC4)c(C)c2O3)cc2cn[nH]c12` [1.127] the figure was 0.02 µM; with `CC(C)(C)n1cc2c(n1)C(=O)CC1(CCN(C(=O)c3ccc4occc4c3)CC1)O2` [17.001], 0.033 µM; with `CC(C)(C)n1cc2c(n1)C(=O)CC1(CCN(C(=O)c3ccc4nc[nH]c4c3)CC1)O2` [3.010], 0.012 µM.
In the case of `CCc1cc(C(=O)N2CCC3(CC2)CC(=O)c2nn(CC)cc2O3)cc2c(C)n[nH]c12` [1.100] it was 0.036 µM; in that of `Cc1n[nH]c2ccc(C(=O)N3CCC4(CC3)CC(=O)c3nn(C(C)C)cc3O4)cc12` [1.081], 0.01 µM; in that of `CC(C)(C)n1cc2c(n1)C(=O)CC1(CCN(C(=O)c3ccc4snc(N)c4c3)CC1)O2` [7.002], 0.003 µM.
On to `Cc1cc(C(=O)N2CCC3(CC2)CC(=O)c2nn(C4CCCC4)cc2O3)cc2c(Cl)n[nH]c12` [1.107], for which the IC50 stood at 0.003 µM.
In the case of `Cc1nc2cc(C(=O)N3CCC4(CC3)CC(=O)c3nn(C(C)(C)C)cc3O4)ccc2s1` [14.001] it was 0.007 µM; in that of `Cc1cc(C(=O)N2CCC3(CC2)CC(=O)c2nn(Cc4ccccc4)c(C)c2O3)cc2cn[nH]c12` [1.033], 0.487 µM.
For the compound `CCc1n[nH]c2c(C)cc(C(=O)N3CCC4(CC3)CC(=O)c3nn(CC)c(C)c3O4)cc12` [1.125], the IC50 came to 0.007 µM.
In the case of `CC(C)(C)n1cc2c(n1)C(=O)CC1(CCN(C(=O)c3cc(Cl)c4[nH]ncc4c3)CC1)O2` [1.065] it was 0.008 µM.
